Data taken from patent US20160038468A1 (priority 2013, published 2016).
Where two headings read alike, the source gives them in different places.

Legend:
Type in all cases: cell-based
Gardnerella vaginalis = test: Agar dilution MIC (CLSI), Gardnerella vaginalis vaginal isolates; conditions: for Number of strains with indicated MIC: 100 samples
Prevotella amnii = test: Agar dilution MIC (CLSI), Prevotella amnii vaginal isolates; conditions: for Number of strains with indicated MIC: 33 samples; for MIC: read-out: Minimal Inhibitory Concentration (MIC)
Peptoniphilus harei = test: Agar dilution MIC (CLSI), Peptoniphilus harei vaginal isolates; conditions: for MIC: read-out: Minimal Inhibitory Concentration (MIC)
[1] = test system: Megasphaera-like bacteria; test: Agar dilution MIC (CLSI), Megasphaera-like bacteria vaginal isolates; conditions: for MIC: read-out: Minimal Inhibitory Concentration (MIC); for Number of strains with indicated MIC: 25 samples
Atopobium vaginae = test: Agar dilution MIC (CLSI), Atopobium vaginae vaginal isolates; conditions: for Number of strains with indicated MIC: 62 samples
Mobiluncus spp = test: Agar dilution MIC (CLSI), Mobiluncus spp vaginal isolate; conditions: read-out: Minimal Inhibitory Concentration (MIC)
Finegoldia magna = test: Agar dilution MIC (CLSI), Finegoldia magna vaginal isolates; conditions: for MIC: read-out: Minimal Inhibitory Concentration (MIC); for Number of strains with indicated MIC: 20 samples
[2] = Gardnerella vaginalis, # tested 107
[3] = Peptoniphilus harei, # tested 23
[4] = Fannyhessea vaginae, # tested 62

CCC[C@@H]1C[C@@H](C(=O)N[C@@H]([C@H]2O[C@H](SC)[C@H](O)[C@@H](O)[C@H]2O)[C@H](C)Cl)N(C)C1 [Clindamycin]
0.03 to 128 µg/mL: MIC Range (Prevotella amnii; # tested 33)
10: Number of strains with indicated MIC (Atopobium vaginae; MIC 0.06 μg/ml)
0.015 to 0.5 µg/mL: MIC Range (Gardnerella vaginalis; # tested 107)
1 (3) μg/ml: Resistant (Prevotella amnii; number (%) of isolates, # tested 33, resistance: rifaximin >32, metronidazole >32, clindamycin >8 μg/ml)
0.06 µg/mL: MIC50 (Atopobium vaginae; [4])
1 µg/mL: MIC (Peptoniphilus harei; Peptoniphilus harei, isolate 601098V Q) | MIC (Peptoniphilus harei; Peptoniphilus harei, isolate 601212V 15) | MIC (Peptoniphilus harei; Peptoniphilus harei, isolate 601259V 11) | MIC (Peptoniphilus harei; Peptoniphilus harei, isolate 601289V C) | MIC (Peptoniphilus harei; Peptoniphilus harei, isolate 601326V F) | MIC90 (Peptoniphilus harei; [3])
32 (97) μg/ml: Susceptible (Prevotella amnii; number (%) of isolates, # tested 33)
2: Number of strains with indicated MIC (Peptoniphilus harei; MIC >[…], 23 samples) | Number of strains with indicated MIC (Finegoldia magna; MIC 8 μg/ml) | Number of strains with indicated MIC (Finegoldia magna; MIC >[…])
28: Number of strains with indicated MIC (Atopobium vaginae; MIC 0.03 μg/ml)
> 128 µg/mL: MIC (Peptoniphilus harei; Peptoniphilus harei) | MIC (Atopobium vaginae; Fannyhessea vaginae, read-out: Minimal Inhibitory Concentration (MIC)) | MIC (Finegoldia magna; Finegoldia magna)
0.125 µg/mL: MIC50 (Gardnerella vaginalis; [2]) | MIC (Peptoniphilus harei; Peptoniphilus harei, isolate 601311V R) | MIC (Peptoniphilus harei; Peptoniphilus harei, isolate 601342V F) | MIC (Peptoniphilus harei; Peptoniphilus harei, isolate 601365V 14) | MIC (Peptoniphilus harei; Peptoniphilus harei, isolate 601426V D) | MIC (Peptoniphilus harei; Peptoniphilus harei, isolate 601430V 22) | MIC ([1]; isolate 427509 A)
2 (9) μg/ml: Resistant (Peptoniphilus harei; number (%) of isolates, # tested 23, resistance: rifaximin >32, metronidazole >32, clindamycin >8 μg/ml)
25: Number of strains with indicated MIC (Gardnerella vaginalis; MIC 0.06 μg/ml)
0.03 to 0.125 µg/mL: MIC Range ([1]; # tested 25)
128 µg/mL: MIC (Prevotella amnii; Prevotella amnii, isolate 601340 37) | MIC (Finegoldia magna; Finegoldia magna, isolate 601275V c) | MIC (Finegoldia magna; Finegoldia magna, isolate 601298V 30) | MIC90 (Finegoldia magna; Finegoldia magna, # tested 20)
24: Number of strains with indicated MIC ([1]; MIC 0.03 μg/ml)
0.5 µg/mL: MIC (Peptoniphilus harei; Peptoniphilus harei, isolate 601248V 23) | MIC (Peptoniphilus harei; Peptoniphilus harei, isolate 601302V F1) | MIC (Peptoniphilus harei; Peptoniphilus harei, isolate 601374V F) | MIC (Peptoniphilus harei; Peptoniphilus harei, isolate 601388V Q) | MIC50 (Peptoniphilus harei; [3]) | MIC (Finegoldia magna; Finegoldia magna, isolate 601276V 23) | MIC (Finegoldia magna; Finegoldia magna, isolate 601320V 24) | MIC (Finegoldia magna; Finegoldia magna, isolate 601335V c1) | MIC (Finegoldia magna; Finegoldia magna, isolate 601367V c) | MIC50 (Finegoldia magna; Finegoldia magna, # tested 20)
1: Number of strains with indicated MIC (Gardnerella vaginalis; MIC 0.015 μg/ml) | Number of strains with indicated MIC (Gardnerella vaginalis; MIC […] μg/ml) | Number of strains with indicated MIC (Prevotella amnii; MIC […]) | Number of strains with indicated MIC ([1]; MIC […]) | Number of strains with indicated MIC (Atopobium vaginae; MIC 8 μg/ml) | Number of strains with indicated MIC (Atopobium vaginae; MIC 16 μg/ml) | Number of strains with indicated MIC (Atopobium vaginae; MIC >[…]) | Number of strains with indicated MIC (Atopobium vaginae; MIC […] μg/ml) | Number of strains with indicated MIC (Finegoldia magna; MIC 0.03 μg/ml)
8 µg/mL: MIC (Finegoldia magna; Finegoldia magna, isolate 301303V D) | MIC (Finegoldia magna; Finegoldia magna, isolate 601205V 39)
0.03 µg/mL: MIC (Prevotella amnii; Prevotella amnii, isolate 601203 4) | MIC (Prevotella amnii; Prevotella amnii, isolate 601256 11) | MIC (Prevotella amnii; Prevotella amnii, isolate 601258 25) | MIC (Prevotella amnii; Prevotella amnii, isolate 601261 E) | MIC (Prevotella amnii; Prevotella amnii, isolate 601266 20) | MIC (Prevotella amnii; Prevotella amnii, isolate 601278 10) | MIC (Prevotella amnii; Prevotella amnii, isolate 601287 HH) | MIC (Prevotella amnii; Prevotella amnii, isolate 601291 41) | MIC (Prevotella amnii; Prevotella amnii, isolate 601293 29) | MIC (Prevotella amnii; Prevotella amnii, isolate 601305 A) | MIC (Prevotella amnii; Prevotella amnii, isolate 601311 K) | MIC (Prevotella amnii; Prevotella amnii, isolate 601314 19) | MIC (Prevotella amnii; Prevotella amnii, isolate 601318 G) | MIC (Prevotella amnii; Prevotella amnii, isolate 601336 33) | MIC (Prevotella amnii; Prevotella amnii, isolate 601341 H) | MIC (Prevotella amnii; Prevotella amnii, isolate 601350 A) | MIC (Prevotella amnii; Prevotella amnii, isolate 601365 6) | MIC (Prevotella amnii; Prevotella amnii, isolate 601368 24) | MIC (Prevotella amnii; Prevotella amnii, isolate 601369 13) | MIC (Prevotella amnii; Prevotella amnii, isolate 601375 L) | MIC (Prevotella amnii; Prevotella amnii, isolate 601377 9) | MIC (Prevotella amnii; Prevotella amnii, isolate 601379 24) | MIC (Prevotella amnii; Prevotella amnii, isolate 601388 G) | MIC (Prevotella amnii; Prevotella amnii, isolate 601399 10) | MIC (Prevotella amnii; Prevotella amnii, isolate 601405 A) | MIC (Prevotella amnii; Prevotella amnii, isolate 601411 L) | MIC (Prevotella amnii; Prevotella amnii, isolate 601413 10) | MIC (Prevotella amnii; Prevotella amnii, isolate 601418 27) | MIC (Prevotella amnii; Prevotella amnii, isolate 601426 A) | MIC (Prevotella amnii; Prevotella amnii, isolate 601430 14) | MIC (Prevotella amnii; Prevotella amnii, isolate 601434 13) | MIC (Prevotella amnii; Prevotella amnii, isolate 601458 13) | MIC50 (Prevotella amnii; Prevotella amnii, # tested 33) | MIC90 (Prevotella amnii; Prevotella amnii, # tested 33) | MIC ([1]; 427510 h, isolate 427507 H) | MIC50 ([1]; # tested 25) | MIC90 ([1]; # tested 25) | MIC ([1]; isolate 426749 T) | MIC ([1]; isolate 426766 Q) | MIC ([1]; isolate 426788 8a) | MIC ([1]; isolate 426788 C) | MIC ([1]; isolate 427470 10) | MIC ([1]; isolate 427490 2u) | MIC ([1]; isolate 427522 8) | MIC ([1]; isolate 600770 O) | MIC ([1]; isolate 600790 N) | MIC ([1]; isolate 600796 V) | MIC ([1]; isolate 600831 9) | MIC ([1]; isolate 600837 18) | MIC ([1]; isolate 600861 P) | MIC ([1]; isolate 602236 E3) | MIC ([1]; isolate 602241 D) | MIC ([1]; isolate 602241 F) | MIC ([1]; isolate 602270 A) | MIC ([1]; isolate 602282 I) | MIC ([1]; isolate 602288 16) | MIC ([1]; isolate 602302 22) | MIC ([1]; isolate 602305 I) | MIC ([1]; isolate 602324 8) | MIC ([1]; isolate 602672 12A) | MIC (Finegoldia magna; Finegoldia magna, isolate 601363V 6)
>128 µg/mL: Minimal Inhibitory Concentration (MIC) (Peptoniphilus harei; isolate 426868V D) | Minimal Inhibitory Concentration (MIC) (Finegoldia magna; isolate 601214V F)
32: Number of strains with indicated MIC (Prevotella amnii; MIC 0.03 μg/ml)
0.25 µg/mL: MIC90 (Gardnerella vaginalis; [2]) | MIC (Peptoniphilus harei; Peptoniphilus harei, isolate 601203V 8) | MIC (Peptoniphilus harei; Peptoniphilus harei, isolate 601293V 21) | MIC (Peptoniphilus harei; Peptoniphilus harei, isolate 601355V D) | MIC (Peptoniphilus harei; Peptoniphilus harei, isolate 601399V 16) | MIC (Peptoniphilus harei; Peptoniphilus harei, isolate 601409V L) | MIC (Peptoniphilus harei; Peptoniphilus harei, isolate 601413V 16) | MIC (Peptoniphilus harei; Peptoniphilus harei, isolate 601539V 25B) | MIC90 (Atopobium vaginae; [4]) | MIC (Finegoldia magna; Finegoldia magna, isolate 601295V 25) | MIC (Finegoldia magna; Finegoldia magna, isolate 601308V 24) | MIC (Finegoldia magna; Finegoldia magna, isolate 601323V K) | MIC (Finegoldia magna; Finegoldia magna, isolate 601330V c) | MIC (Finegoldia magna; Finegoldia magna, isolate 601340V 27) | MIC (Finegoldia magna; Finegoldia magna, isolate 601359V c)
11: Number of strains with indicated MIC (Gardnerella vaginalis; MIC 0.03 μg/ml)
4 µg/mL: MIC (Mobiluncus spp) | MIC (Finegoldia magna; Finegoldia magna, isolate 601283V 14) | MIC (Finegoldia magna; Finegoldia magna, isolate 601315V 17) | MIC (Finegoldia magna; Finegoldia magna, isolate 601315V 17A)
21 (91) μg/ml: Susceptible (Peptoniphilus harei; number (%) of isolates, # tested 23)
